Assay results: ChEMBL document CHEMBL5360570, “Discovery of pyrazolo[3,4-b]pyridine derivatives as novel and potent Mps1 inhibitors for the treatment of cancer” (Eur J Med Chem, 2023)

What was measured:
MDA-MB-468 [1] = experiment: Antiproliferative activity against human MDA-MB-468 cells assessed inhibition of cell growth at 2 uM incubated for 72 hrs by CCK-8 assay relative to control; assay type: functional
[2] = molecular target: T1, Dual specificity protein kinase TTK (Homo sapiens, UniProt P33981); experiment: Inhibition of Mps1 (unknown origin) pretreated for 10 mins followed by substrate addition and measured after 60 mins in presence of ATP by ADP-glo kinase assay
T1 sequence (P33981 whole entry): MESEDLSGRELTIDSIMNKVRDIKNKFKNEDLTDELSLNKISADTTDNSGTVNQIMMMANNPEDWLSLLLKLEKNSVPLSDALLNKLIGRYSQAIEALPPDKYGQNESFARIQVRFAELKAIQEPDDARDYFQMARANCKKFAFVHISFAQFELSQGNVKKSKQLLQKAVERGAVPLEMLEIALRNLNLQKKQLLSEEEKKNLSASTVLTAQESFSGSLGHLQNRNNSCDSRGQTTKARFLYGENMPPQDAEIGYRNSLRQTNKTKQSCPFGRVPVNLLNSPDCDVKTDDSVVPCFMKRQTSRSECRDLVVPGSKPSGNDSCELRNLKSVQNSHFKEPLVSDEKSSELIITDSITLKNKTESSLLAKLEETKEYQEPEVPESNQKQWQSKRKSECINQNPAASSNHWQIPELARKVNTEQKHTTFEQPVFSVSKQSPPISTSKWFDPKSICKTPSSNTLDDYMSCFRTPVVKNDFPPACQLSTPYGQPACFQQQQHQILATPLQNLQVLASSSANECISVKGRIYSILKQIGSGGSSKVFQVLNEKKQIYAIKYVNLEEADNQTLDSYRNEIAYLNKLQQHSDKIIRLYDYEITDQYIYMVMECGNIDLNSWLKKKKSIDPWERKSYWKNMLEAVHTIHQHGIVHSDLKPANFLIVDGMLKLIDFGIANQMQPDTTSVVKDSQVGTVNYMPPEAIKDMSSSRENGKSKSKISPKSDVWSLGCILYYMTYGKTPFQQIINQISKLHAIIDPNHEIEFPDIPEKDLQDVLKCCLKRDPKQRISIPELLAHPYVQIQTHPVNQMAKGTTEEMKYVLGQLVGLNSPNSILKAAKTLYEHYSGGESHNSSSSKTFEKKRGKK

[3] = molecular target: T2, Dual specificity protein kinase TTK (Homo sapiens) (UniProt P33981); experiment: Inhibition of Mps1 (unknown origin) at 1000 nM pretreated for 10 mins followed by substrate addition and measured after 60 mins in presence of ATP by ADP-glo kinase assay relative to control; conditions: time 70.0 min
T2 sequence (whole entry): T1 sequence (P33981 whole entry)

MCF7 = experiment: Antiproliferative activity against human MCF7 cells assessed inhibition of cell growth incubated for 72 hrs by CCK-8 assay relative to control; assay type: functional
MV4-11 = experiment: Antiproliferative activity against human MV4-11 cells assessed inhibition of cell growth incubated for 72 hrs by CCK-8 assay relative to control; assay type: functional
MDA-MB-231 = experiment: Antiproliferative activity against human MDA-MB-231 cells assessed inhibition of cell growth incubated for 72 hrs by CCK-8 assay; assay type: functional
[4] = Antiproliferative activity against human RBE cells assessed inhibition of cell growth incubated for 72 hrs by CCK-8 assay relative to control; assay type: functional
MDA-MB-468 [5] = experiment: cells; assay type: functional, cell-based; conditions: Homo sapiens, MDA-MB-468, 72 h
Description: Antiproliferative activity against human MDA-MB-468 cells assessed inhibition of cell growth incubated for 72 hrs by CCK-8 assay

[6] = Metabolic stability in human liver microsome assessed as half life preincubated for 10 mins followed by NADPH addition and measured upto 60 mins by LC-MS/MS analysis; assay type: ADME; conditions: liver microsomes, time < 70 min
[7] = Metabolic stability in human liver microsome assessed as intrinsic clearance preincubated for 10 mins followed by NADPH addition and measured upto 60 mins by LC-MS/MS analysis; assay type: ADME; conditions: liver microsomes, time < 70 min, read-out: CLH
[8] = Metabolic stability in human microsome assessed as intrinsic clearance preincubated for 10 mins followed by NADPH addition and measured upto 60 mins by LC-MS/MS analysis; assay type: ADME; conditions: microsomes, time < 70 min
[9] = molecular target: T1, Dual specificity protein kinase TTK; experiment: Inhibition of MPS1 (unknown origin)
MDA-MB-468 [10] = experiment: Antitumor activity against human MDA-MB-468 cells xenografted in BALB/c nude mouse assessed as tumor growth inhibition at 30 mg/kg, iv administered once daily for 21 days; assay type: functional; conditions: MDA-MB-468, 504 h, time 21 day, read-out: TGI

SMILES	inhibition at 2 µM (MDA-MB-468 [1]) [%]	IC50 [2] [µM]	inhibition [3] [%]	inhibition (INH) (MCF7) [%]	inhibition (INH) (MV4-11) [%]	inhibition (INH) (MDA-MB-231) [%]	inhibition (INH) [4] [%]	other results
C=CC(=O)Nc1cc(NC(=O)CC)ccc1Nc1nc(-n2ccc(C(=O)Nc3c(CC)cccc3CC)c2)c2cn[nH]c2n1	5.51	> 1	–	–	–	–	–	–
C#CC(=O)Nc1cc(N2CCN(C(C)=O)CC2)ccc1Nc1nc(-n2ccc(C(=O)Nc3c(CC)cccc3CC)c2)c2cn[nH]c2n1	7.17	> 1	–	–	–	–	–	–
CCC(=O)Nc1cc(N2CCN(C(C)=O)CC2)ccc1Nc1nc(-n2ccc(C(=O)Nc3c(CC)cccc3CC)c2)c2cn[nH]c2n1	-3.96	> 1	–	–	–	–	–	–
C=CC(=O)Nc1cc(N2CCN(C(C)=O)CC2)ccc1Nc1nc(-n2ccc(C(=O)Nc3c(CC)cccc3CC)c2)c2cn[nH]c2n1	-2.46	> 1	–	–	–	–	–	–
COc1cccc(-c2n[nH]c3nc(Nc4ccc(N5CCC(N(C)C)CC5)cc4OC)nc(OC4CCCC4)c23)c1	2.34	–	44.5	22.33	-1.1	22.71	4.83	–
COc1cc(N2CCOCC2)ccc1Nc1nc(OC2CCCC2)c2c(-c3ccc(OC)c(OC)c3)n[nH]c2n1	69.7	–	59.9	10.48	-22.73	21.19	11.97	IC50 (MDA-MB-468 [5]): 2.09 µM
COc1cc(N2CCC(N(C)C)CC2)ccc1Nc1nc(OC2CCCC2)c2c(-c3ccc(OC)c(OC)c3)n[nH]c2n1	94.3	0.00484	84.7	25.87	21.89	72.16	36.32	IC50 (MDA-MB-468 [5]): 1.27 µM
O=C(O)Cc1ccccc1Nc1c(Cl)cccc1Cl [DICLOFENAC]	–	–	–	–	–	–	–	half-life [6]: 11 min; CLint scaled [7]: 113 mL/min/kg; microsomal CLint [8]: 126 µL/min/mg
COc1cc(N2CCN(C)CC2)ccc1Nc1nc(OC2CCCC2)c2c(-c3ccc(OC)c(OC)c3)n[nH]c2n1	40.7	–	63.9	17.07	-3.55	24.33	4.83	–
COc1cc(N2CCCCC2)ccc1Nc1nc(OC2CCCC2)c2c(-c3ccc(OC)c(OC)c3)n[nH]c2n1	-3.15	–	49.1	16.66	-21.2	25.74	16.61	–
COc1cc(N2CCN(C)CC2)ccc1Nc1nc(-n2ccc(C(=O)Nc3c(C)cccc3C)c2)c2cn[nH]c2n1	–	0.00381	–	–	–	–	–	IC50 (MDA-MB-468 [5]): 0.857 µM
CCc1cccc(CC)c1N1CCn2cc(-c3nc(Nc4ccc(N5CCOCC5)cc4OC)nc4[nH]ncc34)cc2C1=O	–	0.00614	–	–	–	–	–	IC50 (MDA-MB-468 [5]): 0.663 µM
CC#CC(=O)Nc1cc(N2CCOCC2)ccc1Nc1nc(-n2ccc(C(=O)Nc3c(CC)cccc3CC)c2)c2cn[nH]c2n1	-0.47	> 1	–	–	–	–	–	–
COc1ccc(-c2n[nH]c3nc(Nc4ccccc4)nc(OC4CCCC4)c23)cc1OC	19.9	–	15.2	4.54	-13.46	26.44	4.28	–
COc1ccc(-c2n[nH]c3nc(Nc4ccc(N5CCC(N(C)C)CC5)cc4OC)nc(OC4CCCC4)c23)cc1	5.57	–	35.7	10.76	-10.86	10.57	7.85	–
C=CC(=O)Nc1cc(N2CCOCC2)ccc1Nc1nc(-c2cc3n(c2)CCN(c2c(CC)cccc2CC)C3=O)c2cn[nH]c2n1	–	> 1	–	–	–	–	–	IC50 (MDA-MB-468 [5]): 2.62 µM
COc1cc(N2CCC(N(C)C)CC2)ccc1Nc1nc(OC2CC2)c2c(-c3ccc(OC)c(OC)c3)n[nH]c2n1	30	–	63.9	20.26	-17.18	35.24	14.2	–
COc1cc(N2CCN(C(C)=O)CC2)ccc1Nc1nc(-n2ccc(C(=O)Nc3c(C)cccc3C)c2)c2cn[nH]c2n1	34.8	0.00852	–	–	–	–	–	–
CCc1cccc(CC)c1NC(=O)c1ccn(-c2nc(Nc3ccc(N4CCN(C(C)=O)CC4)cc3OC)nc3[nH]ncc23)c1	–	0.00403	–	–	–	–	–	IC50 (MDA-MB-468 [5]): 0.371 µM
COc1cc(OC2CCN(C)CC2)ccc1Nc1ncc2c(n1)n(C1CCCC1)c(=O)n2C	–	–	–	–	–	57.08	–	IC50 (MDA-MB-468 [5]): 2.1 µM
COCCCNC(=O)c1cc(-c2ccc(OC)c(OC)c2)nc2[nH]nc(-c3ccc(OC)cc3)c12	–	–	–	–	–	–	–	IC50 [9]: 0.391 µM
COc1cc(N2CCC(N(C)C)CC2)ccc1Nc1nc(OC2CCCCC2)c2c(-c3ccc(OC)c(OC)c3)n[nH]c2n1	68.5	–	70.7	25.38	20.47	66.51	28.45	–
C=CC(=O)Nc1cc(N2CCN(C(C)=O)CC2)ccc1Nc1nc(-c2cc3n(c2)CCN(c2c(CC)cccc2CC)C3=O)c2cn[nH]c2n1	0.38	> 1	–	–	–	–	–	–
COc1cc(N2CCN(C(C)=O)CC2)ccc1Nc1nc(OC2CCCC2)c2c(-c3ccc(OC)c(OC)c3)n[nH]c2n1	81.5	–	51.2	17.16	8.63	26.44	39.75	IC50 (MDA-MB-468 [5]): 1 µM
CCc1cccc(CC)c1NC(=O)c1ccn(-c2nc(Nc3ccc(N4CCOCC4)cc3N3CCN(C)CC3)nc3[nH]ncc23)c1	-1.94	> 1	–	–	–	–	–	–
COc1ccc(Oc2cc(NCCC(F)(F)F)c3ncc(-c4ccc(C(=O)NC5CC5)c(C)c4)n3n2)c(F)c1F [BAY-1217389]	–	–	–	–	–	61.14	–	inhibition in vivo at 30 mg/kg (MDA-MB-468 [10]): 67%
CCc1cccc(CC)c1NC(=O)c1ccn(-c2nc(Nc3ccc(N4CCN(C)CC4)cc3OC)nc3[nH]ncc23)c1	64.3	0.00337	–	–	–	–	–	–
C=C(F)C(=O)Nc1cc(N2CCN(C(C)=O)CC2)ccc1Nc1nc(-n2ccc(C(=O)Nc3c(CC)cccc3CC)c2)c2cn[nH]c2n1	-1.41	> 1	–	–	–	–	–	–
CCc1cccc(CC)c1NC(=O)c1ccn(-c2nc(Nc3ccc(N4CCN(C(C)=O)CC4)cc3NC(C)=O)nc3[nH]ncc23)c1	-2.92	> 1	–	–	–	–	–	–
